Assay results as given in US11104661B1, “Inhibiting human integrin (α-4) (β-7)” (Morphic Therapeutic, Inc., priority 2019, dated 2021).

How the values were obtained:
α4β7 [1] = molecular target: T1, α4β7 (Homo sapiens, UniProt P13612+P26010); assay: Cell adhesion assay, RPMI8866 cells on MAdCAM coated plates (Example 7); type: cell-based; conditions: RPMI8866 cells adhering to recombinant human MAdCAM, read-out: CA Assay (Example 7)
T1 construct: endogenous in cells; host or cells: RPMI 8866 cells
T1 sequence (P13612 34-1032): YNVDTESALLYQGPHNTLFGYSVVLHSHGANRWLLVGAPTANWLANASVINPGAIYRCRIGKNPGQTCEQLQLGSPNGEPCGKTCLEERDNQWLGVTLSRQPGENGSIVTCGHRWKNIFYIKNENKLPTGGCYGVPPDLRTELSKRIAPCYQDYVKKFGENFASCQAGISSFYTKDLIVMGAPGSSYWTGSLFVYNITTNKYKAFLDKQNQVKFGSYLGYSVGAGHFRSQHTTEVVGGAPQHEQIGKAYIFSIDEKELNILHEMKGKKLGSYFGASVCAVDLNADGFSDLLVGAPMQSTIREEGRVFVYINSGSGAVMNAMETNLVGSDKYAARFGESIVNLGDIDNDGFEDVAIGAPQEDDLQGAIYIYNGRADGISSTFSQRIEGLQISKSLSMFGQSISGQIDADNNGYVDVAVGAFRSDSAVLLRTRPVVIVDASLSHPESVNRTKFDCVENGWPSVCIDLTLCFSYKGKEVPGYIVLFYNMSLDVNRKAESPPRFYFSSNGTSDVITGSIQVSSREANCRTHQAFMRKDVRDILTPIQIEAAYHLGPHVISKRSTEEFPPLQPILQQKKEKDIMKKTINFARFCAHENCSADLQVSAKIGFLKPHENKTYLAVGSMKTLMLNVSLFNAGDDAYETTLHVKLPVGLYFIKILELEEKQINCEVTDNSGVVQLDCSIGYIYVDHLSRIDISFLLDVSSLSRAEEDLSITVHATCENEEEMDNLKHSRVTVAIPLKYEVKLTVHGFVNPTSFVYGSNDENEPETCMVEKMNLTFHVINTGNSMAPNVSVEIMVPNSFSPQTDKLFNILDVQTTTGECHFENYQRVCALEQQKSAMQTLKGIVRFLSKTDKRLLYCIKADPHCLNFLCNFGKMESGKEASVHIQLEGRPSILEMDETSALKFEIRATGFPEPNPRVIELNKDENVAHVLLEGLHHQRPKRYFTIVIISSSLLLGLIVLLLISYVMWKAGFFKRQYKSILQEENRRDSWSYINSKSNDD
T1 sequence (P26010 20-798): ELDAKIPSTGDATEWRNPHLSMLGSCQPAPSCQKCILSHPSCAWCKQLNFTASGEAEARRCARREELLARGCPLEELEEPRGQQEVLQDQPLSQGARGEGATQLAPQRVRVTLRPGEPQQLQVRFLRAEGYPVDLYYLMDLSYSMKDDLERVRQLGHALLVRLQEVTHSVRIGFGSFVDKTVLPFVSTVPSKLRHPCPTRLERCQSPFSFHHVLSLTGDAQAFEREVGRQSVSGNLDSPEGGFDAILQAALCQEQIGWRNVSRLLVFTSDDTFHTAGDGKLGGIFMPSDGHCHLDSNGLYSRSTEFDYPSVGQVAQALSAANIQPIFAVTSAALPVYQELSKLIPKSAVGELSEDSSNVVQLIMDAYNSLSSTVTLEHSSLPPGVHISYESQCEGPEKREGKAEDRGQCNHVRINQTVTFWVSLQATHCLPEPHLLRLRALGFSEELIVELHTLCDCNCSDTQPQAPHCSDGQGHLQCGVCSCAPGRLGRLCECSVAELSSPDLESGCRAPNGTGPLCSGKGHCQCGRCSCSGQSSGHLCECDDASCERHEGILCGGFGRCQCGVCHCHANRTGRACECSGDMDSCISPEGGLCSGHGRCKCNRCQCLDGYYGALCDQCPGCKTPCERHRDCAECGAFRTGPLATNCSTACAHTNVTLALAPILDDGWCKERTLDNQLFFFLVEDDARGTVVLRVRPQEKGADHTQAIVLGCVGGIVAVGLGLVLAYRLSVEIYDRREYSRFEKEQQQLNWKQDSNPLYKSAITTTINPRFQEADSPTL
Protocol: (§1) Three in vitro assays were used to examine the α4β7 mechanistic process used by cells: 1) ligand:receptor affinity, 2) the avidity of those interactions on a cell's surface, and 3) how those interactions fare under an imposing force. In Example 5, a Fluorescence Polarization (FP) assay is used to measure compound activity through binding competition with the fluorescein-labeled peptide. In Example 6, the potency of compounds against α4β7 is measured in the cell-based ligand binding assay (LBA), using RPMI 8866 cells incubated with the compound samples in competition with soluble MAdCAM-1 ligand. In Example 7, activity of compounds is evaluated in a cell adhesion assay that mechanistically tests what occurs in vivo when trafficking cells utilize α4β7 to adhere to MAdCAM-1 expressing HEVs of the gut during the extravasation process. In the cell adhesion assay of Example 7, a MAdCAMI1-(Fc) is coated on plastic, and α4β7 expressing cells (RPMI-8866) are allowed to adhere to the coated surface in the presence of the test compounds. Next, the force of washing with buffer is applied to cells thereby testing the strength of that adhesion. Unattached cells are removed and the remaining adherent cells are quantified.
Example 7 describes a cell adhesion assay.
To each well of a 96 well plate, 100 ug of recombinant human MAdCAM in 100 ul PBS is added and incubated overnight at 4° C. After incubation MAdCAM is removed by aspiration and 200 ul of PBS+1% BSA is added to block the plate for 2 hours at 37° C. and 5% CO2. During this incubation dilution curves of compound are made in 100% DMSO in 96 well V bottom plates. 1.75 ul of diluted compounds are then transferred to a new 96 well U bottom plate containing 20 ul of assay media (phosphate free DMEM+25 mM HEPES+1% BSA). To this an additional 155 ul of assay media is added with mixing by pipetting up and down. This mixture is allowed to incubate for 15 minutes at 37° C. and 5% CO2. After incubation 175 ul of assay media containing 2e6/mL RPMI8866 cells is added to compound containing wells without mixing and plate is allowed to incubate for another 15 minutes at 37° C. and 5% CO2. During this incubation MAdCAM coated plates are removed from incubator and washed twice with 200 ul PBS+0.1% BSA. […] This plate is then incubated at 37° C. and 5% CO2 for 1 hour. After incubation plates are washed twice with 200 ul and once with 50 ul of phenol free RPMI+1% BSA. A final 50 ul of phenol free RPMI+1% BSA is added to wells after last wash. Next 50 ul of Promega cell titer glow is added to the wells. Plate is incubated on shaker for 2 minutes at 200 RPM followed by another 8 minutes off shaker before having the luminescence read on a Biotek Citation 5 plate reader. Raw data is converted to % inhibition compared to bottom of curve and analyzed using a 4-parameter non linear curve in Prism to determine IC50 and IC90.

α4β7 [2] = molecular target: T1, α4β7; assay: Cell-based MAdCAM-1 ligand binding assay (LBA) on RPMI 8866 cells (Example 6); conditions: MAdCAM-1-Fc Dylight 650, 3 mM manganese chloride, flow cytometry, Table 4 comparative compounds, read-out: LB Assay (Example 6)
Text: Compounds of Formula (I) were further evaluated using a Ligand binding assay (LBA) to examine compound potency of free ligand binding to receptors expressed on cells. The MAdCAM ligand binding assay uses flow cytometry to measure the binding of fluorescently-labeled MAdCAM-1-Fc to RPMI 8866 cells in the presence of Mn++. This assay assesses the binding of compounds to native full-length receptors on the cell surface. […] Ligand binding assays (LBA) are used to examine compound potency and selectivity of free ligand binding to receptors expressed on cells.
as §1
5 ul of 33 nM MAdCAM-1-Fc fluorescently labeled with Dylight 650 in 50 mM HEPES pH 7.3, 150 mM sodium chloride, and 1% bovine serum albumin was added to the cells. The samples were incubated for 45 minutes at room temperature, fixed with 0.8% formaldehyde for 30 minutes at room temperature, and washed with 50 mM Tris pH 7.5, 150 mM NaCl, 1 mM EDTA, and 1% bovine serum albumin. Fluorescence intensity for each cell was measured via flow cytometry. Dead cells were excluded from further analysis based on staining with the 780 fixable viability dye. Median fluorescence intensity for Dylight 650 was determined for each sample and concentration-response curves were analyzed for IC50 values using 4-parameter non-linear regression analysis.

integrin α4β7 = molecular target: T2, integrin α4β7 (Homo sapiens, UniProt P13612+P26010); assay: Fluorescence polarization (FP) assay for α4β7 binding (Example 5); conditions: competition with fluorescein-labeled peptide, 6.5 nM integrin α4β7, 2 mM manganese chloride; Table 4 comparative compounds
T2 sequence (P13612 35-977 limits assumed): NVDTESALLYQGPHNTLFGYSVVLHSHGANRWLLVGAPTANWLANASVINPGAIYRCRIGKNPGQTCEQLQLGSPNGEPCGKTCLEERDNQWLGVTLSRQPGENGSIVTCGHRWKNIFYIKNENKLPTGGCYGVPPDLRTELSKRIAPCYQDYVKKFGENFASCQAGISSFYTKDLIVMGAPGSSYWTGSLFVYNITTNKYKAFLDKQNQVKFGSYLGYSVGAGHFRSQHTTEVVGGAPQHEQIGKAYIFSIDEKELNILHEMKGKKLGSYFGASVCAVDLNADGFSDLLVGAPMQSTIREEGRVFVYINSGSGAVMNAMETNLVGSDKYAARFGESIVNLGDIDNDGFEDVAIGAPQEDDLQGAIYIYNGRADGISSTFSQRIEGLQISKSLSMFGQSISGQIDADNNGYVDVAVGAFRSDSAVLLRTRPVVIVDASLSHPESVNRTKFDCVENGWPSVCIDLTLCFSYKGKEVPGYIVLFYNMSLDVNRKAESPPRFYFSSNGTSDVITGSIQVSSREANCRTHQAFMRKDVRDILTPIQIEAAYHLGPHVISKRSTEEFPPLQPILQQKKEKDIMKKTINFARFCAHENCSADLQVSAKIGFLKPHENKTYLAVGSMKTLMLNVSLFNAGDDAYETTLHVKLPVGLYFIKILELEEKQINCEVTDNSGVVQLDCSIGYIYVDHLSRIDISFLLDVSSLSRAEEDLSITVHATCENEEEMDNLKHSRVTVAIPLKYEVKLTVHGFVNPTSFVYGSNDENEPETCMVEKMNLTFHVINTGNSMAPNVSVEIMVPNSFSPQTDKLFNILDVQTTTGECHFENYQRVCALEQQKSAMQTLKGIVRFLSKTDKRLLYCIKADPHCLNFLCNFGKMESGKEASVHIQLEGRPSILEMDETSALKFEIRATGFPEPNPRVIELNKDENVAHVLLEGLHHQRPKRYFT
T2 sequence (P26010 20-723 limits assumed): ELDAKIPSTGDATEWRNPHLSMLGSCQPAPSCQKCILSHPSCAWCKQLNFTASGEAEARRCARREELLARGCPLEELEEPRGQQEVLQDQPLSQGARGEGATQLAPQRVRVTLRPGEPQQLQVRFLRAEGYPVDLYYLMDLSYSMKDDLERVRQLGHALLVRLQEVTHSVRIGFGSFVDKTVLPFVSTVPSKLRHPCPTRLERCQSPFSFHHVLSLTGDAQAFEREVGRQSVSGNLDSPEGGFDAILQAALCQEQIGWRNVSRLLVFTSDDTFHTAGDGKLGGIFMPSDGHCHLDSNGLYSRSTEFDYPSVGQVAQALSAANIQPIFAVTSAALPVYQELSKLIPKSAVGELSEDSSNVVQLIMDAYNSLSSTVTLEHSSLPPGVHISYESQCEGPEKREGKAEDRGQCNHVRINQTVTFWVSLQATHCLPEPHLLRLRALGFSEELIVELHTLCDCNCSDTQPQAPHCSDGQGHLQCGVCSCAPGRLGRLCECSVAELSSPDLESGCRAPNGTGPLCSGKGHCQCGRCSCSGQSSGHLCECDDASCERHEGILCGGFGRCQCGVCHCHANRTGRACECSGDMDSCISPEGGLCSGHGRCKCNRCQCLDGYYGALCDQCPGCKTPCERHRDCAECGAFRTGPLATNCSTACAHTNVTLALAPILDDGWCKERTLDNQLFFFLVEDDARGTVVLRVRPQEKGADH
Protocol: Compounds of Formula (I) were evaluated using a fluorescent polarization (FP) assay. FP assays are used to evaluate potency of compounds on purified protein. The FP assays consists of measuring purified integrin αβ heterodimer ecto domains or headpiece binding to surrogate or truncated ligands.
as §1
Fluorescence Polarization (FP) assays were used to measure compound activity through binding competition with the fluorescein-labeled peptide […]{Lys(FITC)}. In the assay, 6.5 nM of integrin α4β7 was incubated with the test compound in 2 mM manganese chloride, 0.1 mM calcium chloride, 20 mM HEPES buffer at pH 7.3, 150 mM sodium chloride, 0.01% Triton X-100, 2% DMSO, and 3 nM of the fluorescein-labeled peptide. Running the assays in 384-well plates, the integrin protein was pre-incubated with the test compounds for 15 minutes at 22° C. before the fluorescein-labeled peptide was added. After the fluorescein-labeled peptide was added, the assay was incubated at 22° C. for 1 hour and fluorescence polarization was measured. IC50 values were determined by nonlinear regression, four-parameter curve fitting.

Row | IC50 (integrin α4β7) | further results | SMILES
1 | – | IC50 (α4β7 [1]; Table 4 comparative compounds): > 0.1 µM; IC50 (α4β7 [2]): 0.01 to 0.5 µM | Cc1ccccc1-c1cc([C@H](CC(=O)O)NC(=O)[C@H](CC(C)C)n2ccc(C(F)(F)F)cc2=O)cnc1C
2 | 0.01 to 0.5 µM | – | Cc1cccc(C)c1-c1cncc([C@H](CC(=O)O)NC(=O)[C@@H](CC(C)C)n2ccccc2=O)c1
3 | > 0.5 µM | – | Cc1cccc(C)c1-c1cncc([C@@H](CC(=O)O)NC(=O)[C@H](CC(C)C)n2ccccc2=O)c1
4 | > 0.5 µM | – | Cc1cccc(C)c1-c1cncc([C@@H](CC(=O)O)NC(=O)[C@@H](CC(C)C)n2ccccc2=O)c1
5 | – | IC50 (α4β7 [1]; Table 3): < 0.005 µM | COC1CN(CCc2cn([C@H](CC(C)C)C(=O)N[C@@H](CC(=O)O)c3cc(-c4c(C)cccc4C)cc(Cl)c3F)c(=O)cc2C(F)(F)F)C1 [W-P2, (3S)-3-(5-chloro-4-fluoro-2′,6′-dimethyl-[1,1′-biphenyl]-3-yl)-3-(2-(5-(2-(3-methoxyazetidin-1-yl)ethyl)-2-oxo-4-(trifluoromethyl)pyridin-1(2H)-yl)-4-methylpentanamido)propanoic acid]
